Measured values taken from patent publication US4695545A, “Culture and process for producing A41030 antibiotics” (Eli Lilly and Company, priority 1984, dated 1987).

Legend:
Eubacterium aerofaciens = experiment: MIC anaerobic bacteria, agar-dilution; assay type: cell-based; details: Eubacterium aerofaciens 1235
Clostridium perfringens = assay type: cell-based; details: Clostridium perfringens 81; agar-dilution
Clostridium difficile [1] = experiment: MIC anaerobic bacteria, agar-dilution; assay type: cell-based; details: Clostridium difficile 2994; agar-dilution (Table 9)
Clostridium septicum = experiment: MIC anaerobic bacteria, agar-dilution; assay type: cell-based; details: Clostridium septicum 1128
Bacteroides vulgatis = experiment: MIC anaerobic bacteria, agar-dilution; assay type: cell-based; details: Bacteroides vulgatis 1211
[2] = tested on: Staphylococcus epidermidis; experiment: MIC aerobic bacteria, standard agar-dilution assay; assay type: cell-based
Bacteroides corrodens = experiment: MIC anaerobic bacteria, agar-dilution; assay type: cell-based; details: Bacteroides corrodens 1874
[3] = tested on: Fusobacterium necrophorum; experiment: MIC anaerobic bacteria, agar-dilution; assay type: cell-based; details: Fusobacterium necrophorum 6054A
Klebsiella pneumoniae = experiment: MIC aerobic bacteria, standard agar-dilution assay; assay type: cell-based; details: Klebsiella pneumoniae X26, 24 hours
[4] = tested on: Streptococcus sp. Group D; experiment: MIC aerobic bacteria, standard agar-dilution assay; assay type: cell-based
[5] = tested on: Peptostreptococcus intermedius; experiment: MIC anaerobic bacteria, agar-dilution; assay type: cell-based; details: Peptostreptococcus intermedius 1264
Peptococcus prevoti = experiment: MIC anaerobic bacteria, agar-dilution; assay type: cell-based; details: Peptococcus prevoti 1281
Clostridium difficile [6] = experiment: MIC against Clostridium difficile strains, agar-dilution; assay type: cell-based
Excerpt: The A41030 antibiotic factors A, B, C, D, E, F, and G, are also active against a number of strains of Clostridium difficile, as determined by the agardilution method.

Haemophilus influenzae = experiment: MIC aerobic bacteria, standard agar-dilution assay; assay type: cell-based
Propionibacterium acnes = experiment: MIC anaerobic bacteria, agar-dilution; assay type: cell-based; details: Propionibacterium acnes 79; agar-dilution (Table 9)
[7] = tested on: Peptostreptococcus anaerobius; experiment: MIC anaerobic bacteria, agar-dilution; assay type: cell-based; details: Peptostreptococcus anaerobius 1428
[8] = tested on: Peptococcus asaccharolyticus; experiment: MIC anaerobic bacteria, agar-dilution; assay type: cell-based; details: Peptococcus asaccharolyticus 1302
Fusobacterium symbiosum = experiment: MIC anaerobic bacteria, agar-dilution; assay type: cell-based; details: Fusobacterium symbiosum 1470
Bacteroides fragilis = experiment: MIC anaerobic bacteria, agar-dilution; assay type: cell-based
[9] = tested on: Bacteroides thetaiotaomicron; experiment: MIC anaerobic bacteria, agar-dilution; assay type: cell-based; details: Bacteroides thetaiotaomicron 1438
Streptococcus pyogenes = experiment: MIC aerobic bacteria, standard agar-dilution assay; assay type: cell-based; details: Streptococcus pyogenes C203, 24 hours
Streptococcus pneumoniae = experiment: MIC aerobic bacteria, standard agar-dilution assay; assay type: cell-based; details: Streptococcus pneumoniae Park I, 24 hours
Solubility in solvents = assay type: physicochemical; details: qualitative
Excerpt: As many as seven antibiotic factors are recovered from the fermentation and are obtained as a mixture, the A41030 complex. It will be recognized that the ratio of the factors in the A41030 complex will vary, depending upon the fermentation conditions used. The individual factors A, B, C, D, E, F, and G are separated and isolated as individual compounds, as hereinafter described.

[10] = tested on: Bacteroides melaninogenicus; experiment: MIC anaerobic bacteria, agar-dilution; assay type: cell-based; details: Bacteroides melaninogenicus 2736

A41030 factor G
MIC (Eubacterium aerofaciens): 2 µg/mL
MIC (Clostridium perfringens): 2 µg/mL
MIC (Clostridium difficile [1]): 2 µg/mL
MIC (Clostridium septicum): 2 µg/mL
MIC (Bacteroides vulgatis): 64 µg/mL
MIC ([2]; Staphylococcus epidermidis EPI1, 24 hours): 0.5 µg/mL
MIC ([2]; Staphylococcus epidermidis EPI2, 24 hours): 0.5 µg/mL
MIC (Bacteroides corrodens): 32 µg/mL
MIC [3]: 2 µg/mL
MIC (Klebsiella pneumoniae): 64 µg/mL
MIC ([4]; Streptococcus sp. Group D 9960, 24 hours): 4 µg/mL
MIC ([4]; Streptococcus sp. Group D X66, 24 hours): 4 µg/mL
MIC [5]: 2 µg/mL
MIC (Peptococcus prevoti): 2 µg/mL
MIC (Clostridium difficile [6]; Clostridium difficile 78): 1.0 µg/mL
MIC (Clostridium difficile [6]; Clostridium difficile 107B): 1.0 µg/mL
MIC (Clostridium difficile [6]; Clostridium difficile 111F): 1.0 µg/mL
MIC (Clostridium difficile [6]; Clostridium difficile 1153): 1.0 µg/mL
MIC (Clostridium difficile [6]; Clostridium difficile 2634): 1.0 µg/mL
MIC (Clostridium difficile [6]; Clostridium difficile 3424-5B): 1.0 µg/mL
MIC (Clostridium difficile [6]; Clostridium difficile 3816): 1.0 µg/mL
MIC (Clostridium difficile [6]; Clostridium difficile 3950D): 1.0 µg/mL
MIC (Clostridium difficile [6]; Clostridium difficile 6890): 1.0 µg/mL
MIC (Clostridium difficile [6]; Clostridium difficile 8484): 1.0 µg/mL
MIC (Clostridium difficile [6]; Clostridium difficile A-194): 1.0 µg/mL
MIC (Clostridium difficile [6]; Clostridium difficile A-195): 1.0 µg/mL
MIC (Clostridium difficile [6]; Clostridium difficile A-196): 1.0 µg/mL
MIC (Clostridium difficile [6]; Clostridium difficile A-279): 1.0 µg/mL
MIC (Clostridium difficile [6]; Clostridium difficile A-280): 1.0 µg/mL
MIC (Clostridium difficile [6]; Clostridium difficile A-281): 1.0 µg/mL
MIC (Clostridium difficile [6]; Clostridium difficile WAL-2112): 1.0 µg/mL
MIC (Clostridium difficile [6]; Clostridium difficile WAL-3657): 1.0 µg/mL
MIC (Clostridium difficile [6]; Clostridium difficile WAL-4268): 1.0 µg/mL
MIC (Haemophilus influenzae; Haemophilus influenzae 76, 24 hours): 32 µg/mL
MIC (Haemophilus influenzae; Haemophilus influenzae C.L., 24 hours): 32 µg/mL
MIC (Propionibacterium acnes): 1.0 µg/mL
MIC [7]: ≤ 0.5 µg/mL
MIC [8]: 1.0 µg/mL
MIC (Fusobacterium symbiosum): 2 µg/mL
MIC (Bacteroides fragilis; Bacteroides fragilis 111): 32 µg/mL
MIC (Bacteroides fragilis; Bacteroides fragilis 1877): 32 µg/mL
MIC (Bacteroides fragilis; Bacteroides fragilis 1936B): 64 µg/mL
MIC [9]: 64 µg/mL
MIC (Streptococcus pyogenes): 2 µg/mL
MIC (Streptococcus pneumoniae): 2 µg/mL
solubility (solvents) (Solubility in solvents): soluble in the same solvents as is factor A
MIC [10]: 64 µg/mL
